# Laboratory results published in patent publication US20080280879A1, “SUBSTITUTED HETEROCYCLIC DERIVATIVES AND THEIR PHARMACEUTICAL USE AND COMPOSITIONS” (priority 2007, published 2008).
# Experiments:
# Assay type in all cases: cell-based, Staphylococcus aureus
# Staph aureus 1146 [1] = assay: MIC in Mueller-Hinton Broth with 50% pooled inactivated human serum, Assay 1, Table 12; conditions: for MIC: Staphylococcus aureus, 1146, Staph aureus 1146, Assay 1, 50% human serum, read-out: MIC, column C; for MIC, column C: Staph aureus 1146, Assay 1, 50% human serum
# How it was run: (§1)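 MIC read as lowest drug level giving no macroscopically visible growth, μg/ml. Method: CLSI M7-A7 microtiter broth dilution, M100-S16 interpretation. Serum arm: inoculum in Mueller-Hinton Broth + 50% pooled inactivated human serum. Multiple runs → geometric mean.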
# Staph aureus 2811 = assay: MIC, microtiter broth dilution (CLSI M7-A7), Assay 1, Table 12 column D, no serum; conditions: for MIC: Staphylococcus aureus, 2811, Staph aureus 2811, Assay 1, no serum; for MIC, column D: Staph aureus 2811, Assay 1, no serum
# How it was run: as §1
# Staph aureus 1146 [2] = assay: MIC, microtiter broth dilution (CLSI M7-A7), Assay 1, Table 12 column B, no serum; conditions: for MIC: Staphylococcus aureus, 1146, Staph aureus 1146, Assay 1, no serum; for MIC, column B: Staph aureus 1146, Assay 1, no serum
# How it was run: as §1
# Staph aureus 2812 = assay: MIC, microtiter broth dilution (CLSI M7-A7), Assay 1, Table 12 column E, no serum; conditions: for MIC: Staphylococcus aureus, 2812, Staph aureus 2812, Assay 1, no serum; for MIC, column E: Staph aureus 2812, Assay 1, no serum
# How it was run: as §1
# Staph aureus 1095 MRSA = assay: MIC, microtiter broth dilution (CLSI M7-A7), Assay 1, Table 12 column A, no serum; conditions: Assay 1, no serum; for MIC: Staphylococcus aureus, MRSA
# How it was run: as §1
Compound,MIC (Staph aureus 1146 [1]) [µg/mL],MIC (Staph aureus 2811) [µg/mL],MIC (Staph aureus 1146 [2]) [µg/mL],MIC (Staph aureus 2812) [µg/mL],MIC (Staph aureus 1095 MRSA) [µg/mL],"MIC, column C (Staph aureus 1146 [1]) [µg/mL]","MIC, column D (Staph aureus 2811)","MIC, column B (Staph aureus 1146 [2])","MIC, column E (Staph aureus 2812) [µg/mL]","MIC, column A (Staph aureus 1095 MRSA) [µg/mL]"
"COc1ccc2nccc([C@@H](O)CC[C@@H]3CCN(C4CC(c5cccc(F)c5C)C4)C[C@@H]3C(=O)O)c2c1 (stereo partly drawn) [Example 57, (3R,4R)-1-[3-(3-fluoro-2-methylphenyl)cyclobutyl]-4-[(3S)-3-hydroxy-3-(6-methoxyquinolin-4-yl)propyl]piperidine-3-carboxylic acid]",8,0.25,0.25,0.25,0.5,,,,,
"COc1ccc2nccc([C@@H](O)CC[C@@H]3CCN(C4CC(c5cc(C)ccc5F)C4)C[C@@H]3C(=O)O)c2c1 (stereo partly drawn) [Example 61, (3R,4R)-1-[3-(2-fluoro-5-methylphenyl)cyclobutyl]-4-[(3S)-3-hydroxy-3-(6-methoxyquinolin-4-yl)propyl]piperidine-3-carboxylic acid]",2,≤ 0.0625,≤ 0.0625,≤ 0.0625,0.125,,,,,
"COc1ccc2nccc([C@@H](O)CC[C@@H]3CCN(C4CC(c5cc(C(F)(F)F)ccc5F)C4)C[C@@H]3C(=O)O)c2c1 (stereo partly drawn) [Example 62, (3R,4R)-1-{3-[2-fluoro-5-(trifluoromethyl)phenyl]cyclobutyl}-4-[(3S)-3-hydroxy-3-(6-methoxyquinolin-4-yl)propyl]piperidine-3-carboxylic acid]",64,1,2,2,4,,,,,
"COc1ccc2nccc([C@@H](O)CC[C@@H]3CCN(C4CC(c5c(F)cccc5Cl)C4)C[C@@H]3C(=O)O)c2c1 (stereo partly drawn) [Example 63, (3R,4R)-1-[3-(2-chloro-6-fluorophenyl)cyclobutyl]-4-[(3S)-3-hydroxy-3-(6-methoxyquinolin-4-yl)propyl]piperidine-3-carboxylic acid]",2,≤ 0.0625,≤ 0.0625,≤ 0.0625,0.125,,,,,
"COc1ccc2nccc([C@@H](O)CC[C@@H]3CCN(C4CC(c5cccc(Cl)c5F)C4)C[C@@H]3C(=O)O)c2c1 (stereo partly drawn) [Example 64, (3R,4R)-1-[3-(3-chloro-2-fluorophenyl)cyclobutyl]-4-[(3S)-3-hydroxy-3-(6-methoxyquinolin-4-yl)propyl]piperidine-3-carboxylic acid]",8,≤ 0.0625,≤ 0.0625,≤ 0.0625,≤ 0.0625,,,,,
"COc1ccc2nccc([C@@H](O)CC[C@@H]3CCN(C4CC(c5ccc(Cl)cc5F)C4)C[C@@H]3C(=O)O)c2c1 (stereo partly drawn) [Example 65, (3R,4R)-1-[3-(4-chloro-2-fluorophenyl)cyclobutyl]-4-[(3S)-3-hydroxy-3-(6-methoxyquinolin-4-yl)propyl]piperidine-3-carboxylic acid]",16,0.25,0.25,1,1,,,,,
"COc1ccc2nccc([C@@H](O)CC[C@@H]3CCN(C4CC(c5c(F)cccc5F)C4C)C[C@@H]3C(=O)O)c2c1 (stereo partly drawn) [Example 66, (3R,4R)-1-[(2,3)-3-(2,6-difluorophenyl)-2-methylcyclobutyl]-4-[(3S)-3-hydroxy-3-(6-methoxyquinolin-4-yl)propyl]piperidine-3-carboxylic acid]",,,,,,4,0.125 µg/mL,0.125 µg/mL,0.25,1
"COc1ccc2nccc([C@@H](O)CC[C@@H]3CCN(C4CC(c5c(F)cccc5F)C4C)C[C@@H]3C(=O)O)c2c1 (stereo partly drawn) [Example 67, (3R,4R)-1-[(2,3)-3-(2,6-difluorophenyl)-2-methylcyclobutyl]-4-[(3S)-3-hydroxy-3-(6-methoxyquinolin-4-yl)propyl]piperidine-3-carboxylic acid]",,,,,,2,<=.0625 μg/ml,<=.0625 μg/ml,0.125,0.125
"COc1ccc2ncc(Cl)c(CCCC3(C(=O)O)CCN(C4CC(c5ccccc5)C4)C3)c2c1 (stereo not drawn) [Example 86, 3-[3-(3-chloro-6-methoxyquinolin-4-yl)propyl]-1-(3-phenylcyclobutyl)pyrrolidine-3-carboxylic acid]",8,≤ 0.0625,≤ 0.0625,≤ 0.0625,≤ 0.0625,,,,,
"COc1ccc2ncc(Cl)c(CCCC3(C(=O)O)CCN(C4CC(c5c(F)cccc5F)C4)C3)c2c1 (stereo not drawn) [Example 87, 3-[3-(3-chloro-6-methoxyquinolin-4-yl)propyl]-1-[3-(2,6-difluorophenyl)cyclobutyl] pyrrolidine-3-carboxylic acid]",8,≤ 0.0625,≤ 0.0625,≤ 0.0625,≤ 0.0625,,,,,
"COc1ccc2nccc([C@H](O)CC[C@@H]3CCN(C4CC(c5cccc(F)c5)C4)C[C@@H]3C(=O)O)c2c1 (stereo partly drawn) [Example 91, (3R,4R)-1-[3-(3-fluorophenyl)cyclobutyl]-4-[(3R)-3-hydroxy-3-(6-methoxyquinolin-4-yl)propyl]piperidine-3-carboxylic acid]",8,0.25,0.25,0.25,0.5,,,,,
"COc1ccc2nccc(CCCC3(C(=O)O)CCN(C4CC(c5ccccc5)C4)CC3)c2c1 (stereo not drawn) [Example 93, 4-[3-(6-methoxyquinolin-4-yl)propyl]-1-(3-phenylcyclobutyl)piperidine-4-carboxylic acid]",> 64,2,2,1,2,,,,,
"COc1ccc2nccc(C(O)CC[C@@H]3CCN(C4CC(O)(c5ccccc5)C4)C[C@@H]3C(=O)O)c2c1 (stereo partly drawn) [Example 94, (3R,4R)-4-[3-hydroxy-3-(6-methoxyquinolin-4-yl)propyl]-1-(3-hydroxy-3-phenylcyclobutyl)piperidine-3-carboxcylic acid]",,,,,,>64,>64 µg/mL,32 µg/mL,>64,>64
"COc1ccc2nccc(C(O)CC[C@@H]3CCN(C4CCC(c5ccc(Cl)cc5)C4)C[C@@H]3C(=O)O)c2c1 (stereo partly drawn) [Example 97, (3R,4R)-1-[3-(4-chlorophenyl)cyclopentyl]-4-[3-hydroxy-3-(6-methoxyquinolin-4-yl)propyl]piperidine-3-carboxylic acid]",> 64,8,2,8,32,,,,,

# Further compounds by falling MIC (Staph aureus 1146 [1]), results first:
MIC (Staph aureus 1146 [1]) [µg/mL],MIC (Staph aureus 2811) [µg/mL],MIC (Staph aureus 1146 [2]) [µg/mL],MIC (Staph aureus 2812) [µg/mL],MIC (Staph aureus 1095 MRSA) [µg/mL],Compound,"MIC, column C (Staph aureus 1146 [1]) [µg/mL]","MIC, column D (Staph aureus 2811)","MIC, column B (Staph aureus 1146 [2])","MIC, column E (Staph aureus 2812) [µg/mL]","MIC, column A (Staph aureus 1095 MRSA) [µg/mL]"
4,≤ 0.0625,≤ 0.0625,≤ 0.0625,0.25,"COc1ccc2nccc([C@@H](O)CC[C@@H]3CCN(C4CC(c5c(F)ccc(Cl)c5F)C4)C[C@@H]3C(=O)O)c2c1 (stereo partly drawn) [Example 68, (3R,4R)-1-[3-(3-chloro-2,6-difluorophenyl)cyclobutyl]-4-[(3S)-3-hydroxy-3-(6-methoxyquinolin-4-yl)propyl]piperidine-3-carboxylic acid]",,,,,
4,0.25,0.5,0.25,1,"COc1ccc2nccc(C(O)CC[C@@H]3CCN(C4CC(c5ccc(F)cc5)C4)C[C@@H]3C(=O)O)c2c1 (stereo partly drawn) [Example 88, (3R,4R)-1-[3-(4-fluorophenyl)cyclobutyl]-4-[3-hydroxy-3-(6-methoxyquinolin-4-yl)propyl]piperidine-3-carboxylic acid]",,,,,
2,0.5,0.5,0.5,2,"COc1ccc2nccc(C(O)CC[C@@H]3CCN(C4CC5(CCCCC5)C4)C[C@@H]3C(=O)O)c2c1 (stereo partly drawn) [Example 56, (3R,4R)-4-[3-hydroxy-3-(6-methoxyquinolin-4-yl)propyl]-1-spiro[3.5]non-2-ylpiperidine-3-carboxylic acid]",,,,,
2,0.125,0.125,0.25,0.5,"COc1ccc2nccc([C@@H](O)CC[C@@H]3CCN(C4CC(c5c(F)cc(F)cc5F)C4)C[C@@H]3C(=O)O)c2c1 (stereo partly drawn) [Example 69, (3R,4R)-4-[(3S)-3-hydroxy-3-(6-methoxyquinolin-4-yl)propyl]-1-[3-(2,4,6-trifluorophenyl)cyclobutyl]piperidine-3-carboxylic acid]",,,,,
1,< 0.0625,< 0.0625,< 0.0625,< 0.0625,"COc1ccc2nccc([C@H](O)CC[C@@H]3CCN(C4CC(c5ccccc5F)C4)C[C@@H]3C(=O)O)c2c1 (stereo partly drawn) [Example 90, (3R,4R)-1-[3-(2-fluorophenyl)cyclobutyl]-4-[(3R)-3-hydroxy-3-(6-methoxyquinolin-4-yl)propyl]piperidine-3-carboxylic acid]",,,,,
0.5,< 0.0625,< 0.0625,< 0.0625,< 0.0625,"COc1ccc2nccc([C@@H](O)CC[C@@H]3CCN(C4CC(c5ccccc5F)C4)C[C@@H]3C(=O)O)c2c1 (stereo partly drawn) [Example 89, (3R,4R)-1-[3-(2-fluorophenyl)cyclobutyl]-4-[(3S)-3-hydroxy-3-(6-methoxyquinolin-4-yl)propyl]piperidine-3-carboxylic acid]",,,,,
0.5,≤ 0.0625,≤ 0.0625,≤ 0.0625,0.125,"COc1ccc2nccc([C@@H](O)CC[C@@H]3CCN(C4CC(c5cccc(F)c5)C4)C[C@@H]3C(=O)O)c2c1 (stereo partly drawn) [Example 92, (3R,4R)-1-[3-(3-fluorophenyl)cyclobutyl]-4-[(3S)-3-hydroxy-3-(6-methoxyquinolin-4-yl)propyl]piperidine-3-carboxylic acid]",,,,,
